Assay results published in US8728539B2, “Method of enhancing intestinal pinocytosis of immunoglobulins in postnatal domestic mammals” (Incorporated Administrative Agency, National Agriculture …, priority 2004, dated 2014).

Columns and labels:
calves (Holstein types) [1] = assay: Absorption of lactalbumin into plasma of calves (FIG. 5); assay type: in vivo; settings: 3 ppm selenium in first colostrum feed; 24 hours postnatal; versus no addition
Experimental: To calves administered with colostrum with selenium, selenium was added only to the first colostrum feeds.
Therefore, selenium is effective in absorption of nonimmunoglobulin proteins such as lactalbumin. Accordingly, selenium enhances pinocytosis, thereby enhancing immunoglobulin proteins or nonimmunoglobulin proteins.

calves (Holstein types) [2] = assay: Biochemical blood tests (18 factors) for adverse effects of added selenium; assay type: in vivo; settings: blood samples 24, 48 hours and 1 week post-parturition; versus colostrum without selenium
Experimental: Moreover, the blood samples were taken 24, 48 hours and 1 week post-parturition respectively, and biochemical blood tests (with 18 factors) were carried out to investigate any adverse effects of added selenium on the health conditions of calves. There was little difference between the test results of the calves administered with colostrum added with selenium, and those of the calves administered with colostrum without selenium.

calves (Holstein types) [3] = assay: IgG in plasma of postnatal calves fed colostrum with added selenium, measured by radial immuno-diffusion (RID); assay type: in vivo
[4] = Selenium concentration in plasma of calves after administration (FIG. 4); assay type: in vivo, calves (Holstein types); settings: 3 ppm selenium, administered only once within 3 hours postnatal; versus no addition
Text: As a supply source of selenium, sodium selenite was used. In order to avoid different absorption rates of immunoglobulins based on different types of colostrum, the same amounts of colostrum milked from the same source were fed to these two calves in a pair. The colostrums fed (frozen for preservation) were of the four types as follows: the first milking post-parturition (Colostrum 1), the second milking post-parturition (Colostrum 2), the third milking post-parturition (Colostrum 3), and the fourth milking post-parturition (Colostrum 4). 2 liters of Colostrum 1 (1 L×2 bottles) were taken, and for the rest, 4 liters (2L×2 bottles) were taken, respectively. 1 liter of Colostrum 1 within 2 hours post-parturition was fed, and then 2 liters of Colostrum 2, 3 and 4 were fed, respectively 12, 24 and 36 hours post-parturition. The concentrations of immunoglobulins in the colostrums used were 24.3-129.0 mg/ml, and those of selenium were 0.06-0.1 ppm (before adding selenium). The concentrations of immunoglobulins G (IgG) in plasma of calves 24 hours post-parturition were measured by means of radial immuno-diffusion (RID). The experiments as above were carried out while varying the selenium content based on the number of addition of selenium, i.e., (1) adding selenium only to Colostrum 1 (1.0-5.0 ppm), and (2) adding selenium to all four types of colostrum (0.2-4.0 ppm). […]

calves (Holstein types) [5] = assay: IgG in plasma of postnatal calves fed colostrum with added selenium, measured by radial immuno-diffusion (RID); assay type: in vivo; settings: for IgG in Plasma: plasma 24 hours post-parturition
Experimental: In the example, colostrum added with selenium was administered to one of the two calves (Holstein types) in a pair, and colostrum without selenium was administered to the other calf. A total of 32 pairs of calves were employed for experimental purposes. For equalizing the experimental conditions of these two sets of calves, they were selected based on their proximities in body weight. The body weights ranged from 30.8-56.9 kg, and the differences between in body weight within a pair were less than 2.5 kg.
As a supply source of selenium, sodium selenite was used. In order to avoid different absorption rates of immunoglobulins based on different types of colostrum, the same amounts of colostrum milked from the same source were fed to these two calves in a pair. The colostrums fed (frozen for preservation) were of the four types as follows: the first milking post-parturition (Colostrum 1), the second milking post-parturition (Colostrum 2), the third milking post-parturition (Colostrum 3), and the fourth milking post-parturition (Colostrum 4). 2 liters of Colostrum 1 (1 L×2 bottles) were taken, and for the rest, 4 liters (2L×2 bottles) were taken, respectively. 1 liter of Colostrum 1 within 2 hours post-parturition was fed, and then 2 liters of Colostrum 2, 3 and 4 were fed, respectively 12, 24 and 36 hours post-parturition. The concentrations of immunoglobulins in the colostrums used were 24.3-129.0 mg/ml, and those of selenium were 0.06-0.1 ppm (before adding selenium). The concentrations of immunoglobulins G (IgG) in plasma of calves 24 hours post-parturition were measured by means of radial immuno-diffusion (RID). The experiments as above were carried out while varying the selenium content based on the number of addition of selenium, i.e., (1) adding selenium only to Colostrum 1 (1.0-5.0 ppm), and (2) adding selenium to all four types of colostrum (0.2-4.0 ppm).

[6] = 3 ppm selenium, first feed only, versus no addition

O=[Se]([O-])[O-].[Na+].[Na+] [Se, sodium selenite]
absorption of lactalbumin (FIG. 5) (calves (Holstein types) [1]): enhances the absorption of lactalbumin | adverse effects on the health conditions of calves, biochemical blood tests (18 factors) (calves (Holstein types) [2]): no adverse effects | duration of high immunoglobulin G level in blood (FIG. 7) (calves (Holstein types) [3]; [6]): the high level against no addition was maintained over 14 days (2 weeks) | immunoglobulin G level in blood immediately after administration (FIG. 7) (calves (Holstein types) [3]; [6]): immunoglobulin G level immediately after administration of selenium is high | IgG in Plasma (calves (Holstein types) [3]; 5.0 ppm Se added to all four colostrum feeds (4x), plasma 24 hours post-parturition, average of 4 calves): 24.6 mg/mL | immunoglobulin G level in blood, selenium and colostrum administered separately (FIG. 6) (calves (Holstein types) [3]; only 3 ppm selenium within 2 hours postnatal, then only colostrum at 12, 24, 36 hours, within 24 hours postnatal, versus no addition): absorption level of immunoglobulin G is high | selenium level in blood, temporal change (FIG. 4) [4]: high selenium level in blood was maintained over 4 weeks postnatal | IgG in Plasma (calves (Holstein types) [5]; 0.2 ppm Se added to all four colostrum feeds (4x), average of 3 calves): 25.7 mg/mL | IgG in Plasma (calves (Holstein types) [5]; 1 ppm Se added only to first colostrum feed (1x), average of 3 calves): 17 mg/mL | IgG in Plasma (calves (Holstein types) [5]; 1.0 ppm Se added to all four colostrum feeds (4x), average of 5 calves): 32.9 mg/mL | IgG in Plasma (calves (Holstein types) [5]; 2 ppm Se added only to first colostrum feed (1x), average of 3 calves): 16 mg/mL | IgG in Plasma (calves (Holstein types) [5]; 3 ppm Se added only to first colostrum feed (1x), average of 6 calves): 21.5 mg/mL | IgG in Plasma (calves (Holstein types) [5]; 4 ppm Se added only to first colostrum feed (1x), average of 4 calves): 17.4 mg/mL | IgG concentration in plasma, four feeds with selenium versus first feed only with selenium (calves (Holstein types) [5]; 4x versus 1x addition of selenium): about the same level | IgG in Plasma (calves (Holstein types) [5]; 5 ppm Se added only to first colostrum feed (1x), average of 4 calves): 23 mg/mL | IgG concentrations in plasma versus calves given colostrum without selenium (FIGS. 2 and 3) (calves (Holstein types) [5]; in most of the experimental conditions, 1x and 4x addition): shown to be higher
